In patent US11919902B2, “Aryl-bipyridine amine derivatives as phosphatidylinositol phosphate kinase inhibitors” (HiberCell, Inc., priority 2017, dated 2024):

Columns and labels:
GST tagged PIP4KtypeIIB = target: T1, GST tagged PIP4KtypeIIB (Homo sapiens, UniProt P78356); assay: Trans-FI P kinase assay PIP4K2B (PIP4KtypeIIB inhibition assay); assay type: biochemical; details: Table 4; compounds listed under IC50 range headings; 100 uM GTP, 5 nM PIP4KIIB; read-out: Trans-FI P kinase assays: PIP4K2B IC50
T1 construct: made in house; host or cells: E. coli
T1 sequence (P78356 1-416): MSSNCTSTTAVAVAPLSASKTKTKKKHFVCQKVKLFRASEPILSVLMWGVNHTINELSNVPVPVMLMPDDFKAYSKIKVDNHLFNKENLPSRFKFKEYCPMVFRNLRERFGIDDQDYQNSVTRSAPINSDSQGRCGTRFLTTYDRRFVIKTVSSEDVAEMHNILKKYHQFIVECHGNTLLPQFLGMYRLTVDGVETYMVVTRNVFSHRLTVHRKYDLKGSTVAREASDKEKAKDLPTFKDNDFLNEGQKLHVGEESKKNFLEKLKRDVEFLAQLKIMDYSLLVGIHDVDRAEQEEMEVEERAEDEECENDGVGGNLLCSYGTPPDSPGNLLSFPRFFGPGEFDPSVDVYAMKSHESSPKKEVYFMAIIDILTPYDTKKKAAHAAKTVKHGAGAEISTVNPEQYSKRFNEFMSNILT
In short: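 Purified GST-PIP4KIIB (5 nM final), 1 h preincubation with compound at 27 C, then 2 h reaction with 100 uM GTP and 80 uM PI5P plus DOPE carrier lipid in pH 7.3 HEPES/MgCl2/Triton buffer with 5% DMSO. GDP read by Transcreener FI fluorescence against a calibration curve; IC50 from % no-inhibitor activity vs log concentration.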

[1] = target: T2, PIP4K2A (full length protein, SignalChem) (Homo sapiens, UniProt P48426); assay: Kinase Assay PIP4K2 A (Sprint); ADP-Glo biochemical assay; details: Table 2; compounds listed under IC50 range headings
T2 construct: 4 nM PIP4K2A (full length protein, SignalChem); purchased SignalChem
T2 sequence (P48426 1-406): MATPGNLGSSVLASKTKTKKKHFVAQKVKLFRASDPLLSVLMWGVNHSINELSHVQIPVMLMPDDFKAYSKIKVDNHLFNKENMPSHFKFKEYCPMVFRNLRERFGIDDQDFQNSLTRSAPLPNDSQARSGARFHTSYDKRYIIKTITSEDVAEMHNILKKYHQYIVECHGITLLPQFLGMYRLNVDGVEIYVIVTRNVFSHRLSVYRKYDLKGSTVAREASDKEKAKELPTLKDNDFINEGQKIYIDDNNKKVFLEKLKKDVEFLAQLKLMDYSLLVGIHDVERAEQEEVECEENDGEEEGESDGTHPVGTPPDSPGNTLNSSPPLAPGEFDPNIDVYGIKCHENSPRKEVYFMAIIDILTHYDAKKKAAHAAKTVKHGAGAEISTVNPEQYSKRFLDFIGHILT
In short: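 Compounds (10-point, 3-fold dilutions) were pre-incubated 15 min at RT with an enzyme/substrate mix of 4 nM full-length PIP4K2A and 100 μM PI(5)P diC8 in 20 mM MOPS pH 7.2, 25 mM MgCl2, 0.005% Tween 20. A 60 μM ATP solution was added, reaction 1 h RT; ADP read by ADP-Glo luminescence, IC50 fitted from % inhibition vs DMSO.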

GST tagged PIP4KtypeIIA = target: T3, GST tagged PIP4KtypeIIA (Homo sapiens, UniProt P48426); assay: ADP-glo kinase assay PIP4K 2A (PIP4KtypeIIA inhibition assay); assay type: biochemical; details: Table 3; compounds listed under IC50 range headings; 10 uM ATP, 0.5 nM PIP4KIIA
T3 construct: made in house; host or cells: E. coli
T3 sequence (P48426 1-406): T2 sequence (P48426 1-406)
In short: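 E. coli-expressed GST-PIP4KtypeIIA (0.5 nM final) was preincubated 1 h at 27 °C with compound (up to 4.8 μM, 5% DMSO) in PI5P/DOPE lipid in 50 mM HEPES pH 7.3 with 10 mM MgCl2. The reaction was started with 10 μM ATP (final) and run 1 h. ADP was read by ADP-Glo luminescence via a calibration curve, and IC50 was taken from % residual activity.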

SMILES	IC50 (GST tagged PIP4KtypeIIB) [nM]	IC50 [1] [nM]	IC50 (GST tagged PIP4KtypeIIA) [nM]
CN(C)C(=O)c1ccc(-c2cc(-c3ccnc4cc(C#N)ccc34)cnc2N)nc1 [Example 109, 2′-amino-5′-(7-cyanoquinolin-4-yl)-N,N-dimethyl-[2,3′-bipyridine]-5-carboxamide]	1000 to 2500	1000 to 2500	2500 to 5000
CNC(=O)c1cnc2c(c1)c(-c1cncc(-c3ccc(N4CCCC4=O)cc3)c1)cn2C [Example 60, N,1-dimethyl-3-(5-(4-(2-oxopyrrolidin-1-yl)phenyl)pyridin-3-yl)-1H-pyrrolo[2,3-b]pyridine-5-carboxamide]	100 to 1000	5 to 100	100 to 1000
O=C1NCc2c(-c3cncc(-c4ccc(N5CCCC5=O)cc4)c3)ccnc21 [Example 78, 4-[5-[4-(2-Oxopyrrolidin-1-yl)phenyl]-3-pyridyl]-5,6-dihydropyrrolo[3,4-b]pyridin-7-one]	100 to 1000	5 to 100	100 to 1000
Cn1cc(-c2cncc(-c3ccc(N4CCCC4=O)cc3)c2)c2cnn(C)c2c1=O [Example 55, 1,6-dimethyl-4-(5-(4-(2-oxopyrrolidin-1-yl)phenyl)pyridin-3-yl)-1,6-dihydro-7H-pyrazolo[3,4-c]pyridin-7-one]	100 to 1000	5 to 100	100 to 1000
CNC(=O)c1cnc2[nH]cc(-c3cncc(-c4ccc(N5CCCC5=O)cc4)c3)c2c1 [Example 71, N-methyl-3-(5-(4-(2-oxopyrrolidin-1-yl)phenyl)pyridin-3-yl)-1H-pyrrolo[2,3-b]pyridine-5-carboxamide]	10 to 100	5 to 100	100 to 1000
Nc1ncc(-c2cccc3ncsc23)cc1-c1ccc(N2CCCC2=O)cn1 [Example 24, 1-(2′-amino-5′-(benzo[d]thiazol-7-yl)-[2,3′-bipyridin]-5-yl)pyrrolidin-2-one]	1000 to 2500	100 to 1000	1000 to 2500
CN(C)C(=O)c1ccc(-c2cc(-c3ccnc(CNC(=O)c4cccc(N)c4)c3)cnc2N)nc1 [Example 191, 2′-amino-2″-((3-aminobenzamido)methyl)-N,N-dimethyl-[2,3′:5′,4″-terpyridine]-5-carboxamide]	1000 to 2500	1000 to 2500	> 5000
CN(C)C/C=C/C(=O)Nc1cccc(CCC(=O)NCc2cc(-c3cnc(N)c(-c4ccc(C(=O)N(C)C)cn4)c3)ccn2)c1 [Example 195, (E)-2′-amino-2″-((3-(3-(4-(dimethylamino)but-2-enamido)phenyl)propanamido)methyl)-N,N-dimethyl-[2,3′:5′,4″-terpyridine]-5-carboxamide]	2500 to 5000	< 5000	> 5000

Continued, values first:

IC50 (GST tagged PIP4KtypeIIB) [nM]	IC50 [1] [nM]	IC50 (GST tagged PIP4KtypeIIA) [nM]	SMILES
10 to 100	100 to 1000	100 to 1000	CC(C)n1cnnc1-c1ccc(-c2cncc(-c3ccnc4c3cc3n4CCN(C)C3=O)c2)cc1 [Example 384, 4-(5-(4-(4-isopropyl-4H-1,2,4-triazol-3-yl)phenyl)pyridin-3-yl)-7-methyl-8,9-dihydropyrido[3′,2′:4,5]pyrrolo[1,2-a]pyrazin-6(7H)-one]
100 to 1000	5 to 100	10 to 100	Cn1cc(-c2cnc(N)nc2)c2cc(-c3cncc(-c4ccc(N5CCCC5=O)cc4)c3)cnc21 [Example 355, 1-(4-(5-(3-(2-aminopyrimidin-5-yl)-1-methyl-1H-pyrrolo[2,3-b]pyridin-5-yl)pyridin-3-yl)phenyl)pyrrolidin-2-one]
100 to 1000	100 to 1000	100 to 1000	CN(C)C(=O)c1ccc(-c2cc(-c3[nH]nc4ncncc34)cnc2N)nc1 [Example 214, 2′-amino-N,N-dimethyl-5′-(2H-pyrazolo[3,4-d]pyrimidin-3-yl)-[2,3′-bipyridine]-5-carboxamide]
100 to 1000	5 to 100	100 to 1000	COc1ncc(-c2cnc(N)c(-c3ccc(N4CCCC4=O)cc3)c2)c2cn[nH]c12 [Example 258, 1-(4-(2-amino-5-(7-methoxy-2H-pyrazolo[3,4-c]pyridin-4-yl)pyridin-3-yl)phenyl)pyrrolidin-2-one]
